Marks after values point to notes of the source that are not given here.
Assays:
Type in all cases: cell-based
A549 cells [1] = assay: Differentiation index: CEA secretory volume of A549 cells; details: A549 culture supernatant, 10 ug/ml, 3 d, DMSO
Method: 1.6 Detection of Differentiation Index The cultured A549 cells are randomly divided into 6 10 μg/ml drug groups, cell control groups, solvent control groups (DMSO and ethanol) and 10 μg/ml fenretinide control groups (11 in total). The control groups and drug groups are cultured for 3 days to collect respective 3 tubes of cell culture solutions which are centrifugated at a speed of 4000 r/min for 5 min to take the supernatant and detect the CEA content of the kit by using enzyme kinetics and CEA detection.

HepG2 cells [2] = assay: AFP secretory volume of HepG2 cells; details: for effects on AFP secretory volume (statistics, in words): HepG2, compared with the control groups, P less than 0.05; for AFP: HepG2 cells, DMSO
A549 cells [3] = assay: Cell cycle and apoptosis by flow cytometry, A549; details: A549, 10 μg/ml, 3 days, PI flow cytometry
Method: 1.4 Detection of Cell Cycle and Apoptosis by Flow Cytometry A549 cells in the logarithmic phase are collected, regulated with the concentrations thereof to 8×10^7/L, inoculated in a 6-hole board, cultured in an incubator (37° C. and 5% CO2). After the cells are adhered, the culture solution is discarded, and a culture solution having drugs with the corresponding concentrations is added and divided into 10 μg/ml drug groups, 10 μg/ml fenretinide groups, cell control groups, solvent control groups (1‰ DMSO and anhydrous ethanol) (11 in total). After 3 days, each group of cells is normally digested, collected, blown into single cell suspension, washed by cold PBS twice, and re-suspend by 10 μl PBS. Fixing and member breaking agents and a PI staining solution are added according to the Coulter DNA detection kit and reacted with one another at the room temperature and out of light for 30 min for machine detection. Each sample detects 10000 cells and repeats for three times, and the data are analyzed by Analysis software for the ratio during the G0-G1, S and G2-M periods and the ratio of apoptotic cells.

HepG2 cells [4] = assay: Cell cycle and apoptosis by flow cytometry, HepG2; details: HepG2, flow cytometry
liver cancer HepG2 cells = assay: MTT cell growth and proliferation experiment, HepG2; design: key to Inhibition Rate: (control OD570 − test OD570)/control OD570, as fraction; details: for Inhibition Rate: fraction
Method: (§1) 1.1 Reagents 12 retinoic acid derivatives with the final concentrations of 1 ug/ml, 5 ug/ml and 10 ug/ml are synthesized by the Pharmaceutical College of Anhui Medical University using DMSO and anhydrous ethanol, separately packaged for storage at −20° C. and kept out of the light when used, and the final concentration of DMSO is less than 0.1%. MTT is purchased from Sigma Corp. The Coulter DNA detection kit is presented by the Central Lab of Anhui Provincial Hospital. AFP and γ-GT are provided by the Clinical Lab of No. 105 Hospital of PLA. Apoptosis-Hoechst staining kit is purchased from Beyotime Company.
(§2) 1.2 Cell Culture A549, and HpeG2 cells are stored by our lab. Cell growth condition: DMEM (from GIBICO Company) culture solution is added with 10% of calf serum (purchased from the Hangzhou Sijiqing Biological Engineering Material Co., Ltd.) to culture in a cell culture incubator (37° C., 5% CO2) with saturated humidity.
(§3) 1.3 Cell Growth and Proliferation Experiments MTT process is used. Cells in the logarithmic phase are picked and seeded on a 96-hole culture board with a cell concentration of 5×10^7/L. Each hole of the board is 200 ul. The next day after the adherence, the original solution is discarded, and the culture solution is added. The cells are divided into 1 ug/ml retinoic acid derivative groups, 5 ug/ml retinoic acid derivative groups, 10 ug/ml retinoic acid derivative groups, blank control groups, cell control groups, solvent control groups (1‰ DMSO and anhydrous ethanol) (17 in total) according to the concentrations thereof, incubated for 3d, added with MTT (5 g/L) of 20 ul/hole for incubation at 37° C. for 4 h. The original solution is carefully discarded and dried, and DMSO of 20 ul/hole is added to dissolve crystals, followed by vibrating for 10 min and determining the OD value at 570 nm. Each concentration is corresponding to 5 holes, and each group calculates the average of 3 experiments to calculate the inhibition rate to the cell growth according to the optical density (OD) average of each hole in each group and the following equation: inhibition rate %=(control hole OD570−experimental hole OD570)/control hole OD5700*100%. The process above is repeated for three times. The second experiment takes the maximum concentration (10 […]) for culture respectively for 1, 2, 3 and 7 days and repeat for three times.

HepG2 cells [5] = assay: γ-GT specific activity of HepG2 cells; details: DMSO
A549 lung cancer cells = assay: MTT cell growth and proliferation experiment, A549; design: key to Inhibition Rate: (control OD570 − test OD570)/control OD570, as fraction
Method: as §1, §2, §3

K562 cells = assay: Cell cycle analysis by flow cytometer, K562; design: S %: dose or concentration left out as unconfirmed; details: 72 h
Method: (§4) Retinoic acid derivatives and fenretinide are prepared as a storage solution of 10 mg/mL by anhydrous ethanol and stored at […] and kept out of light.
(§5) NB4 cells and K562 cells are inoculated with an initial concentration of 2*10^5/ml in the RPMI1640 culture solution having 10% of calf serum (FBS), 100 u/ml of penicillin, 100 Lg/ml of streptomycin and 2 mmol/L of glutamine for suspension culture (37° C., 5% CO2). Change the solution every 2-3 days.
(§6) For the cells above acted by the retinoic acid derivatives and fenretinide ([…]) for 72 h, about 10^6 of them are collected, washed by PBS twice, fixed by 70% of cold ethanol over 24 h, washed by PBS twice, added with 5 ug/ml of propidium iodide for staining and detected by a flow cytometer from which the data are analyzed and processed by the multi-cycle software.

NB4 cells = assay: Cell cycle analysis by flow cytometer, NB4; design: S %: dose or concentration left out as unconfirmed; details: 72 h
Method: as §4, §5, §6

[6] = HepG2, MTT OD 570 nm, 1 ug/ml, 3 d, solvent not given
[7] = HepG2, MTT OD 570 nm, 5 ug/ml, 3 d, solvent not given
[8] = HepG2, MTT OD 570 nm, 10 ug/ml, 3 d, solvent not given
[9] = HepG2, MTT time gradient, 10 ug/ml, 1 d
[10] = HepG2, MTT time gradient, 10 ug/ml, 2 d
[11] = HepG2, MTT time gradient, 10 ug/ml, 3 d
[12] = HepG2, MTT time gradient, 10 ug/ml, 7 d
[13] = HepG2, MTT, 1 ug/ml, 3 d, solvent not given
[14] = HepG2, MTT, 5 ug/ml, 3 d, solvent not given
[15] = HepG2, MTT, 10 ug/ml, 3 d, solvent not given
[16] = HepG2, Table 5 repeat MTT, 10 ug/ml, 3 days, DMSO
[17] = A549, MTT time gradient, 10 ug/ml, 1 d
[18] = A549, MTT time gradient, 10 ug/ml, 1 d, fraction
[19] = A549, MTT time gradient, 10 ug/ml, 2 d
[20] = A549, MTT time gradient, 10 ug/ml, 2 d, fraction
[21] = A549, MTT time gradient, 10 ug/ml, 3 d
[22] = A549, MTT time gradient, 10 ug/ml, 3 d, fraction
[23] = A549, MTT time gradient, 10 ug/ml, 7 d
[24] = A549, MTT time gradient, 10 ug/ml, 7 d, fraction

## CC1=C(/C=C/C(C)=C/C=C/C(C)=C/C(=O)Nc2ccc(OC(F)(F)F)cc2)C(C)(C)CCC1 [Example 6a-01, (4-trifluoromethoxyphenyl)-(all-trans)-3,7-dimethyl-9-(2,6,6-trimethyl-1-cyclohexen-1-yl)-2,4,6,8-nonatetraenoic acid amide]
A549 cells [1]
  CEA: 2.9 µg/L
HepG2 cells [2]
  effects on AFP secretory volume (statistics, in words): meaningful in statistics
  AFP: 13.6* ug/L
A549 cells [3]
  Apoptosis Rate (%): 30.5%
  G0-G1 (%): 40.1%
  G2-M (%): 2.34%
  S %: 27.9%
HepG2 cells [4]
  Apoptosis Rate (%): 11.1%
  G0-G1 (%): 57.4%
  G2-M (%): 5.30%
  S %: 26.7%
Liver cancer HepG2 cells; [6]
  OD Value (x ± s): 0.97 ± 0.29
Liver cancer HepG2 cells; [7]
  OD Value (x ± s): 0.89 ± 0.14
Liver cancer HepG2 cells; [8]
  OD Value (x ± s): 0.89 ± 0.30
Liver cancer HepG2 cells; [9]
  OD Value (x ± s): 1.28 ± 0.07
  Inhibition Rate: 0.06
Liver cancer HepG2 cells; [10]
  OD Value (x ± s): 1.55 ± 0.11
  Inhibition Rate: 0.10
Liver cancer HepG2 cells; [11]
  OD Value (x ± s): 1.24 ± 0.18
  Inhibition Rate: 0.26
Liver cancer HepG2 cells; [12]
  OD Value (x ± s): 0.62 ± 0.13
  Inhibition Rate: 0.50
Liver cancer HepG2 cells; [13]
  Inhibition Rate: 0.42
Liver cancer HepG2 cells; [14]
  Inhibition Rate: 0.47
Liver cancer HepG2 cells; [15]
  Inhibition Rate: 0.47
Liver cancer HepG2 cells; [16]
  OD Value (x ± s): 1.163 ± 0.102
  Inhibition Rate: 0.463*
HepG2 cells [5]
  γ-GT: 58.0 ± 1.5 U/L
A549 lung cancer cells; [17]
  OD Value (x ± s): 0.646 ± 0.019
A549 lung cancer cells; [18]
  Inhibition Rate: 0.296
A549 lung cancer cells; [19]
  OD Value (x ± s): 0.909 ± 0.065
A549 lung cancer cells; [20]
  Inhibition Rate: 0.378
A549 lung cancer cells; [21]
  OD Value (x ± s): 0.567 ± 0.057
A549 lung cancer cells; [22]
  Inhibition Rate: 0.389
A549 lung cancer cells; [23]
  OD Value (x ± s): 1.243 ± 0.024
A549 lung cancer cells; [24]
  Inhibition Rate: 0.401
K562 cells
  G1 %: 34.2%
  G2 %: 9.4%
  S %: 56.4%
NB4 cells
  G1 %: 38.24%
  G2 %: 2.70%
  S %: 59.06%

## CC1=C(/C=C/C(C)=C/C=C/C(C)=C/C(=O)Nc2ccc(C(F)(F)F)cc2)C(C)(C)CCC1 [Example 3a-01, (4-trifluoromethylphenyl)-(all-trans)-3,7-dimethyl-9-(2,6,6-trimethyl-1-cyclohexen-1-yl)-2,4,6,8-nonatetraenoic acid amide]
A549 cells [1]
  CEA: 2.9 µg/L
HepG2 cells [2]
  effects on AFP secretory volume (statistics, in words): meaningful in statistics
  AFP: 13.6* ug/L
A549 cells [3]
  Apoptosis Rate (%): 17.6%
  G0-G1 (%): 55.6%
  G2-M (%): 2.41%
  S %: 24.9%
HepG2 cells [4]
  Apoptosis Rate (%): 16.5* %
  G0-G1 (%): 56.3%
  G2-M (%): 4.14%
  S %: 24.8%
Liver cancer HepG2 cells; [6]
  OD Value (x ± s): 1.13 ± 0.16
Liver cancer HepG2 cells; [7]
  OD Value (x ± s): 1.13 ± 0.45
Liver cancer HepG2 cells; [8]
  OD Value (x ± s): 0.86 ± 0.13
Liver cancer HepG2 cells; [9]
  OD Value (x ± s): 1.52 ± 0.13
  Inhibition Rate: 0.12
Liver cancer HepG2 cells; [10]
  OD Value (x ± s): 0.71 ± 0.02
  Inhibition Rate: 0.42
Liver cancer HepG2 cells; [11]
  OD Value (x ± s): 0.77 ± 0.03
  Inhibition Rate: 0.54
Liver cancer HepG2 cells; [12]
  OD Value (x ± s): 0.30 ± 0.08
  Inhibition Rate: 0.77
Liver cancer HepG2 cells; [13]
  Inhibition Rate: 0.33
Liver cancer HepG2 cells; [14]
  Inhibition Rate: 0.33
Liver cancer HepG2 cells; [15]
  Inhibition Rate: 0.49
Liver cancer HepG2 cells; [16]
  OD Value (x ± s): 0.978 ± 0.072
  Inhibition Rate: 0.548*
HepG2 cells [5]
  γ-GT: 52.3 ± 1.5 U/L
A549 lung cancer cells; [17]
  OD Value (x ± s): 0.680 ± 0.055
A549 lung cancer cells; [18]
  Inhibition Rate: 0.258
A549 lung cancer cells; [19]
  OD Value (x ± s): 1.042 ± 0.046
A549 lung cancer cells; [20]
  Inhibition Rate: 0.288
A549 lung cancer cells; [21]
  OD Value (x ± s): 0.623 ± 0.006
A549 lung cancer cells; [22]
  Inhibition Rate: 0.328
A549 lung cancer cells; [23]
  OD Value (x ± s): 1.325 ± 0.028
A549 lung cancer cells; [24]
  Inhibition Rate: 0.361

## CC1=C(/C=C/C(C)=C/C=C/C(C)=C/C(=O)Oc2ccc(OC(F)(F)F)cc2)C(C)(C)CCC1 [Example 5a-01, (4-trifluoromethoxyphenyl)-(all-trans)-3,7-dimethyl-9-(2,6,6-trimethyl-1-cyclohexen-1-yl)-2,4,6,8-nonatetraenoate]
Liver cancer HepG2 cells; HepG2, MTT OD 570 nm, 1 ug/ml, 3 d, solvent ethanol
  OD Value (x ± s): 1.57 ± 0.39
Liver cancer HepG2 cells; HepG2, MTT OD 570 nm, 5 ug/ml, 3 d, solvent ethanol
  OD Value (x ± s): 1.51 ± 0.30
Liver cancer HepG2 cells; HepG2, MTT OD 570 nm, 10 ug/ml, 3 d, solvent ethanol
  OD Value (x ± s): 1.49 ± 0.23
Liver cancer HepG2 cells; HepG2, MTT, 1 ug/ml, 3 d, solvent ethanol
  Inhibition Rate: 0.07
Liver cancer HepG2 cells; HepG2, MTT, 5 ug/ml, 3 d, solvent ethanol
  Inhibition Rate: 0.11
Liver cancer HepG2 cells; HepG2, MTT, 10 ug/ml, 3 d, solvent ethanol
  Inhibition Rate: 0.12
A549 lung cancer cells; A549, MTT OD 570 nm, 1 ug/ml, 3 d, solvent ethanol
  OD Value (x ± s): 1.962 ± 0.225
A549 lung cancer cells; A549, MTT OD 570 nm, 5 ug/ml, 3 d, solvent ethanol
  OD Value (x ± s): 1.754 ± 0.138
A549 lung cancer cells; A549, MTT OD 570 nm, 10 ug/ml, 3 d, solvent ethanol
  OD Value (x ± s): 1.732 ± 0.317
A549 lung cancer cells; A549, MTT, 1 ug/ml, 3 d, solvent ethanol, given as fraction
  Inhibition Rate: −0.051
A549 lung cancer cells; A549, MTT, 5 ug/ml, 3 d, solvent ethanol, given as fraction
  Inhibition Rate: 0.060
A549 lung cancer cells; A549, MTT, 10 ug/ml, 3 d, solvent ethanol, given as fraction
  Inhibition Rate: 0.072
K562 cells
  G1 %: 32.6%
  G2 %: 12.5%
  S %: 55.0%
NB4 cells
  G1 %: 59.28%
  G2 %: 4.98%
  S %: 35.74%

From US8110703B2, “Retinoid derivative and pharmaceutical composition and use thereof” (Anhui Medical University, priority 2008, dated 2012)
